Measured values: US8835134B2, “Cycloastragenol monoglucoside, preparation, pharmaceutical composition and application thereof” (Tianjin Institute of Pharmaceutical Research, priority 2007, dated 2014)

System: anesthetized open-chest dogs
Assay: Hemodynamics of anesthetized open-chest dogs, intravenous infusion
Format: in vivo, mongrel dogs
Method: The animals were anesthetized by intravenous injection of 30 mg/kg sodium pentobarbital, tracheally intubated, and mechanically ventilated with positive air pressure. Left thoracotomy was performed through the fourth intercostal space and the heart was suspended in a pericardial cradle, the aortic root was isolated and a probe of blood flow meter (12 or 14 mm in diameter) was fixed to measure the aortic blood flow as a representation of cardiac output (CO), the circumflex branch of left coronary artery was isolated and a probe of blood flow meter (2 or 2.5 mm in diameter) was fixed to measure the coronary blood flow (CBF). A polyethylene catheter filled with heparin physiological saline was inserted through cardiac apex into the left ventricle to measure the left ventricular pressure (LVP) and left ventricular end-diastolic pressure (LVEDP), Peak positive and peak negative first derivatives of the LVP (+ LVdp/dt and − LVdp/dt) were calculated with the Acknowledge software. The systolic blood pressure (SBP), diastolic blood pressure (DBP) and mean arterial pressure (MAP) were measured by polyethylene catheter via the femoral artery, ECG □ was measured by a AC-601G ECG amplifier. The above-mentioned analog signal was input into a data acquisition workstation (MP100, BIOPAC Systems, USA) to a computer running Acknowledge (version 3.7.1).
After surgery, various indexes before administration were recorded until the indexes were stable, and then intravenous infusion administration was conducted. Thirty dogs were divided into five groups (six dogs in each group), the experiment groups were given 0.15, 0.3, 0.6 mg/kg of ASP-[…] respectively, the normal control group was given 1 ml/kg of solvent, and the positive control group was given 0.3 mg/kg of astragaloside IV. The delivery volumes were 15 ml for each dog was and the delivery velocity was 1 ml/min. The indexes were recorded at 5, 10, 15, 20, 30, 45, 60, 90 and 120 mins after drug administration. At the end of experiment, the hearts were excised and weighted. The myocardial blood flow for per hectogram (CF), coronary resistance (CR), cardiac index (CI), left ventricular work (LVW) and total peripheral resistance (TPR) were calculated according to the following formulae: CF=CBF×[…]/heart weight CR=MAP/CF CI=CO/0.11×(body weight)^2/3 LVW=CO×(MAP−5)×1.052×0.0136 TPR=MAP×79.92/CO
Data are expressed as mean±SD ( x±s), the paired t-test was used to compare the significance between before and after administration, the unpaired t-test was adopted for comparison between groups.

[1] = 0.6 mg/kg iv, 15 min after administration
[2] = 0.6 mg/kg iv, 20 min after administration
[3] = 0.6 mg/kg iv, 30 min after administration
[4] = 0.6 mg/kg iv, 45 min after administration
[5] = 0.6 mg/kg iv, 60 min after administration
[6] = 0.6 mg/kg iv, 90 min after administration
[7] = 0.6 mg/kg iv, 120 min after administration
[8] = 0.6 mg/kg iv, before administration
[9] = 0.15, 0.3 and 0.6 mg/kg iv, within 120 min

CC(C)(O)[C@@H]1CC[C@](C)([C@H]2[C@@H](O)C[C@@]3(C)C4C[C@H](OC5OC(CO)C(O)C(O)C5O)C5C(C)(C)[C@@H](O)CC[C@@]56C[C@@]46CC[C@]23C)O1 (stereo partly drawn) [CMG, Cycloastragenol-6-O-β-D-glucoside]
LVW change vs before administration [1]: (0.06 ± 0.13) kg · m
TPR [1]: 5249 ± 2234 dyn · s/cm^5
TPR change vs before administration [1]: (−258 ± 392) dyn · s/cm^5
dp/dt [1]: 1199 ± 288 mmHg/s
dp/dt change vs before administration [1]: (95 ± 56) mmHg/s
−dp/dt [1]: −851 ± 196 mmHg/s
−dp/dt change vs before administration [1]: (2 ± 98) mmHg/s
CF [2]: 49.8 ± 8.0 ml/min/100 g
CF change vs before administration [2]: (−1.4 ± 1.4) ml/min/100 g
CI [2]: 2.05 ± 0.41 L/min/m^2
CI change vs before administration [2]: (0.09 ± 0.18) L/min/m^2
CO [2]: 1.19 ± 0.34 L/min
CO change vs before administration [2]: (0.05 ± 0.10) L/min
CR [2]: 1.48 ± 0.36 mmHg/ml/min/100 g
CR change vs before administration [2]: (0.06 ± 0.10) mmHg/ml/min/100 g
LVEDP [2]: 1.2 ± 1.6 mmHg
LVEDP change vs before administration [2]: (−1.5 ± 0.54) mmHg
LVP [2]: 107 ± 17 mmHg
LVP change vs before administration [2]: (0.4 ± 3.9) mmHg
LVW [2]: 1.13 ± 0.35 kg · m
LVW change vs before administration [2]: (0.06 ± 0.17) kg · m
TPR [2]: 5176 ± 1818 dyn · s/cm^5
TPR change vs before administration [2]: (−331 ± 534) dyn · s/cm^5
dp/dt [2]: 1276 ± 339 mmHg/s
dp/dt change vs before administration [2]: (172 ± 151) mmHg/s
−dp/dt [2]: −842 ± 220 mmHg/s
−dp/dt change vs before administration [2]: (10 ± 91) mmHg/s
CF [3]: 50.7 ± 8.5 ml/min/100 g
CF change vs before administration [3]: (−0.5 ± 4.0) ml/min/100 g
CI [3]: 2.05 ± 0.57 L/min/m^2
CI change vs before administration [3]: (0.09 ± 0.12) L/min/m^2
CO [3]: 1.20 ± 0.43 L/min
CO change vs before administration [3]: (0.05 ± 0.07) L/min
CR [3]: 1.46 ± 0.38 mmHg/ml/min/100 g
CR change vs before administration [3]: (0.04 ± 0.08) mmHg/ml/min/100 g
LVEDP [3]: 1.3 ± 1.5 mmHg
LVEDP change vs before administration [3]: (−1.4 ± 0.6) mmHg
LVP [3]: 107 ± 17 mmHg
LVP change vs before administration [3]: (0.9 ± 5.6) mmHg
LVW [3]: 1.15 ± 0.45 kg · m
LVW change vs before administration [3]: (0.07 ± 0.13) kg · m
TPR [3]: 5406 ± 2485 dyn · s/cm^5
TPR change vs before administration [3]: (−101 ± 366) dyn · s/cm^5
dp/dt [3]: 1232 ± 274 mmHg/s
dp/dt change vs before administration [3]: (128 ± 108) mmHg/s
−dp/dt [3]: −833 ± 243 mmHg/s
−dp/dt change vs before administration [3]: (20 ± 96) mmHg/s
CF [4]: 50.4 ± 7.8 ml/min/100 g
CF change vs before administration [4]: (−0.8 ± 4.7) ml/min/100 g
CI [4]: 1.97 ± 0.30 L/min/m^2
CI change vs before administration [4]: (0.01 ± 0.26) L/min/m^2
CO [4]: 1.15 ± 0.27 L/min
CO change vs before administration [4]: (0.00 ± 0.15) L/min
CR [4]: 1.48 ± 0.35 mmHg/ml/min/100 g
CR change vs before administration [4]: (0.06 ± 0.16) mmHg/ml/min/100 g
LVEDP [4]: 1.3 ± 1.7 mmHg
LVEDP change vs before administration [4]: (−1.41 ± 0.81) mmHg
LVP [4]: 106 ± 16 mmHg
LVP change vs before administration [4]: (0.2 ± 5.2) mmHg
LVW [4]: 1.1 ± 0.29 kg · m
LVW change vs before administration [4]: (0.03 ± 0.23) kg · m
TPR [4]: 5337 ± 1723 dyn · s/cm^5
TPR change vs before administration [4]: (−170 ± 595) dyn · s/cm^5
dp/dt [4]: 1181 ± 320 mmHg/s
dp/dt change vs before administration [4]: (77 ± 53) mmHg/s
−dp/dt [4]: −842 ± 170 mmHg/s
−dp/dt change vs before administration [4]: (10 ± 126) mmHg/s
CF [5]: 50.2 ± 11.6 ml/min/100 g
CF change vs before administration [5]: (−1.0 ± 6.9) ml/min/100 g
CI [5]: 2.04 ± 0.36 L/min/m^2
CI change vs before administration [5]: (0.08 ± 0.24) L/min/m^2
CO [5]: 1.19 ± 0.32 L/min
CO change vs before administration [5]: (0.04 ± 0.13) L/min
CR [5]: 1.53 ± 0.47 mmHg/ml/min/100 g
CR change vs before administration [5]: (0.11 ± 0.26) mmHg/ml/min/100 g
LVEDP [5]: 1.6 ± 1.6 mmHg
LVEDP change vs before administration [5]: (−1.05 ± 0.76) mmHg
LVP [5]: 105 ± 14 mmHg
LVP change vs before administration [5]: (−0.8 ± 7.7) mmHg
LVW [5]: 1.17 ± 0.40 kg · m
LVW change vs before administration [5]: (0.10 ± 0.20) kg · m
TPR [5]: 5170 ± 1416 dyn · s/cm^5
TPR change vs before administration [5]: (−336 ± 1012) dyn · s/cm^5
dp/dt [5]: 1199 ± 294 mmHg/s
dp/dt change vs before administration [5]: (95 ± 76) mmHg/s
−dp/dt [5]: −829 ± 157 mmHg/s
−dp/dt change vs before administration [5]: (24 ± 167) mmHg/s
CF [6]: 48.6 ± 7.2 ml/min/100 g
CF change vs before administration [6]: (−2.6 ± 2.8) ml/min/100 g
CI [6]: 2.09 ± 0.53 L/min/m^2
CI change vs before administration [6]: (0.13 ± 0.20) L/min/m^2
CO [6]: 1.22 ± 0.40 L/min
CO change vs before administration [6]: (0.07 ± 0.12) L/min
CR [6]: 1.52 ± 0.37 mmHg/ml/min/100 g
CR change vs before administration [6]: (0.11 ± 0.12) mmHg/ml/min/100 g
LVEDP [6]: 1.3 ± 1.4 mmHg
LVEDP change vs before administration [6]: (−1.35 ± 0.72) mmHg
LVP [6]: 105 ± 12 mmHg
LVP change vs before administration [6]: (−1.3 ± 6.7) mmHg
LVW [6]: 1.17 ± 0.44 kg · m
LVW change vs before administration [6]: (0.10 ± 0.11) kg · m
TPR [6]: 5285 ± 2431 dyn · s/cm^5
TPR change vs before administration [6]: (−222 ± 606) dyn · s/cm^5
dp/dt [6]: 1152 ± 313 mmHg/s
dp/dt change vs before administration [6]: (48 ± 63) mmHg/s
−dp/dt [6]: −815 ± 238 mmHg/s
−dp/dt change vs before administration [6]: (37 ± 55) mmHg/s
CF [7]: 49.3 ± 7.3 ml/min/100 g
CF change vs before administration [7]: (−1.9 ± 5.0) ml/min/100 g
CI [7]: 2.07 ± 0.47 L/min/m^2
CI change vs before administration [7]: (0.11 ± 0.22) L/min/m^2
CO [7]: 1.21 ± 0.38 L/min
CO change vs before administration [7]: (0.06 ± 0.13) L/min
CR [7]: 1.42 ± 0.27 mmHg/ml/min/100 g
CR change vs before administration [7]: (0.00 ± 0.17) mmHg/ml/min/100 g
LVEDP [7]: 2.0 ± 1.2 mmHg
LVEDP change vs before administration [7]: (−0.73 ± 0.52) mmHg
LVP [7]: 102 ± 17 mmHg
LVP change vs before administration [7]: (−4.4 ± 5.9) mmHg
LVW [7]: 1.12 ± 0.42 kg · m
LVW change vs before administration [7]: (0.04 ± 0.18) kg · m
TPR [7]: 4925 ± 1674 dyn · s/cm^5
TPR change vs before administration [7]: (−582 ± 764) dyn · s/cm^5
dp/dt [7]: 1078 ± 283 mmHg/s
dp/dt change vs before administration [7]: (−25 ± 109) mmHg/s
−dp/dt [7]: −789 ± 269 mmHg/s
−dp/dt change vs before administration [7]: (64 ± 63) mmHg/s
+LVdp/dtmax maximum increase (0.6 mg/kg iv, at 5-10 min after administration): 22.6±11.8%
CF [8]: 51.2 ± 8.0 ml/min/100 g
CI [8]: 1.96 ± 0.54 L/min/m^2
CO [8]: 1.15 ± 0.40 L/min
CR [8]: 1.41 ± 0.35 mmHg/ml/min/100 g
LVEDP [8]: 2.7 ± 1.3 mmHg
LVP [8]: 106 ± 16 mmHg
LVW [8]: 1.08 ± 0.41 kg · m
TPR [8]: 5507 ± 2267 dyn · s/cm^5
dp/dt [8]: 1104 ± 295 mmHg/s
−dp/dt [8]: −852 ± 244 mmHg/s
duration of LVEDP decrease (0.15, 0.3 and 0.6 mg/kg iv): more than 2 hours
left ventricular work (LVW) (0.15, 0.3 and 0.6 mg/kg iv): no significant change
CF and CR [9]: no significant changes
CO and CI [9]: no significant changes
SBP, DBP, MAP and HR [9]: no significant changes
left ventricular pressure (LVP) [9]: no significant change
total peripheral resistance (TPR) [9]: no significant change
−LVdp/dtmax (0.3 and 0.6 mg/kg iv): no significant effect
